In US8663616B2, “Enzymatic peracid generation for use in oral care products” (E I du Pont de Nemours and Company, priority 2010, dated 2014):

B1: EZ-4: C277S-link1-(GK)5, SEQ ID NO: 427 (protein)
chain: MAFFDLPLEELKKYRPERYEEKDFDEFWEETLAESEKFPLDPVFERMESHLKTVEAYDVTFSGYRGQRIKGWLLVPKLEEEKLPCVVQYIGYNGGRGFPHDWLFWPSMGYICFVMDTRGQGSGWLKGDTPDYPEGPVDPQYPGFMTRGILDPRTYYYRRVFTDAVRAVEAAASFPQVDQERIVIAGGSQGGGIALAVSALSKKAKALLCDVPFLCHFRRAVQLVDTHPYAEITNFLKTHRDKEEIVFRTLSYFDGVNFAARAKIPALFSVGLMDNISPPSTVFAAYNYYAGPKEIRIYPYNNHEGGGSFQAVEQVKFLKKLFEKGGPGSGGAGSPGSAGGPGSGKGKGKGKGK

How the values were obtained:
[1] = molecular target: T1, C277S (SEQ ID NO: 424) (Thermotoga maritima, UniProt Q9WXT2, C277S); assay type: biochemical; conditions: 100 mM ester, 60 mM H2O2, 40 ppm enzyme, 95 mM phosphate pH 7.2, 37° C.
T1 construct: made in house; host or cells: E. coli
Description: (§1) To test various enzymes against an ester substrate, it was convenient to run up to 4 reactions simultaneously by staggering the beginning of each individual reaction by 0.5-1 min. Each individual reaction was performed in a glass vessel (height: 76 mm; o.d.: 33 mm; i.d.: 24 mm) equipped with a magnetic stirring bar. Four reaction vessels were banded together and kept at constant temperature in a jacketed one-liter, stainless steel, tempering beaker (KGW IsoTherm, # TSS-G 1000W) with circulating water controlled by a Thermo NesLab recirculation bath (Model # RTE-7 Digital One). Buffer (6 mL, 100 mM sodium phosphate buffer, pH 7.2) was added to each reaction vessel and allowed to equilibrate to 37° C. The ester substrate of interest was added to achieve 100 mM concentration. […] To follow the production of peracetic acid, 80 μL samples from each reaction were removed at specific intervals from 1 to 15 minutes. The sample was immediately quenched in a microfuge filter tube (NanoSep 30K VWR cat #82031-354) containing a volume and concentration of phosphoric acid solution that was sufficient to stop the enzymatic reaction (by lowering the pH between 2 and 3) and to dilute the sample for convenient HPLC analyses. The acid-quenched samples were centrifuged for 5 minutes to remove any particulates.

[2] = molecular target: T2, C277T (SEQ ID NO: 437) (Thermotoga maritima, UniProt Q9WXT2, C277T); assay type: biochemical; conditions: 100 mM ester, 60 mM H2O2, 40 ppm enzyme, 95 mM phosphate pH 7.2, 37° C.
T2 construct: made in house; host or cells: E. coli
T2 sequence (Q9WXT2 whole entry C277T): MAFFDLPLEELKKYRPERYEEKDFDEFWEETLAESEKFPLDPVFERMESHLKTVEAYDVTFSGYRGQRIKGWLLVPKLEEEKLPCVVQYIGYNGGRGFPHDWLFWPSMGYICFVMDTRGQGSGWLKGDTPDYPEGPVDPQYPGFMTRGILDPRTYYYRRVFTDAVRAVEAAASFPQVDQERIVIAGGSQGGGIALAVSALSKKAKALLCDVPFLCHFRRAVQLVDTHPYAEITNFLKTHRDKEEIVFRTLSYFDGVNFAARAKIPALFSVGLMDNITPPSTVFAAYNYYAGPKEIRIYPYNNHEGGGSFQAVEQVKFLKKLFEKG
Description: as §1

[3] = molecular target: T3, C277T/R296P (SEQ ID NO: 476) (Thermotoga maritima, UniProt Q9WXT2, C277T/R296P); assay type: biochemical; conditions: 100 mM ester, 60 mM H2O2, 40 ppm enzyme, 95 mM phosphate pH 7.2, 37° C.
T3 construct: made in house; host or cells: E. coli
T3 sequence (Q9WXT2 whole entry C277T/R296P): as the sequence (Q9WXT2 whole entry C277T) above, with R296P counted along it
Description: as §1

[4] = molecular target: T4, Wild Type (SEQ ID NO: 16) (Thermotoga maritima, UniProt Q9WXT2); assay: Maximum peracetic acid from ester substrates with wild type perhydrolase (Example 14); assay type: biochemical; conditions: 100 mM ester, 60 mM H2O2, 40 ppm enzyme, 95 mM phosphate pH 7.2, 37° C.
T4 construct: made in house; host or cells: E. coli
T4 sequence (Q9WXT2 1-325): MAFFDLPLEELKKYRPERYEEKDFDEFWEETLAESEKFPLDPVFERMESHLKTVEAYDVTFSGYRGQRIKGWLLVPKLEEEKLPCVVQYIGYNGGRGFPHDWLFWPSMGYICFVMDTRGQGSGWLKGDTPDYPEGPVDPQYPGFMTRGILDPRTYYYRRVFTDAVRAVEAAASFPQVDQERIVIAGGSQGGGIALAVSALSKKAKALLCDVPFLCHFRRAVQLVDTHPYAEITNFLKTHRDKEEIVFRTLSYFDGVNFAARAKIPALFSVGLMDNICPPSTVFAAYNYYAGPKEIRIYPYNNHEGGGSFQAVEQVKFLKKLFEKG
Description: as §1

[5] = Retention of perhydrolase on hydroxyapatite (SDS-PAGE band strength); assay type: binding; conditions: relative to enzyme input = 1
Description: Perhydrolase enzymes listed in Table 6 were assessed for binding to hydroxyapatite. A dispersion of hydroxyapatite nanoparticles (Aldrich 677418) was made at 0.5% solids in 10 mM phosphate buffer at pH 7.2. Enzyme stock solution was added to the hydroxyapatite dispersion to a final concentration of 10 μM and incubated for 30 min in a microcentrifuge tube with gentle agitation. Each sample was centrifuged for 5 min at 10000 rpm. The supernatant was removed and additional buffer was added. The particles were resuspended and transferred to a new tube. The process was repeated two additional times. Samples of the original input of enzyme, the supernatant removed from the particles with each wash step and the final particles were prepared for SDS-PAGE analysis by combining 60 μL of sample, 20 μL of LDS buffer and 8 μL of reducing agent (Nu-PAGE). Samples were heated at 85° C. for 10 min. 25 μL of each sample was loaded on a 4-12% BisTris gel (Invitrogen) and run at 115 volts for 1.5 h. The gel was removed and stained with a 1:1 dilution of Simply Blue stain (Invitrogen) overnight and destained for 4 h in deionized water. The gel was analyzed and detection of enzyme in each fraction was estimated based on the presence of a band. The results of the analysis are provided in Table 7 with an indication of the relative strength of each band in the gel compared to the enzyme input (input=1) to determine the strength of binding between the hydroxyapatite surface and each enzyme.

[6] = Two-step bleaching of coffee-tea stained bovine enamel (Example 16)
Description: Bovine enamel incisors were prepared as indicated in Example 1. The stained enamel blocks were embedded in a 48 well plate to protect the dentin backside from solution exposure. A solution of 10 μM of each enzyme in 10 mM phosphate buffer, pH 7.2 was prepared and 500 μL of solution was incubated with each enamel substrate for 60 min. The enzyme solution was removed and each well was rinsed three times with an additional 500 μL of buffer. The enamel blocks were placed in a fresh well for the whitening process. A solution with a final concentration of 40 mM triacetin, 100 mM H2O2 in 50 mM phosphate pH 7.2 buffer was freshly prepared and 500 μL of solution was added to each enamel block. Over the course of 1 hr the enamel blocks were removed and a color measurement was obtained and then each was returned to the solution in the well plate. The whiteness index for each sample was monitored.

Row | Molecule | Maximum Peracetic Acid (PAA) (ppm), C277S (SEQ ID NO: 424) [1] [ppm] | Maximum Peracetic Acid (PAA) (ppm), C277T (SEQ ID NO: 437) [2] [ppm] | Maximum Peracetic Acid (PAA) (ppm), C277T/R296P (SEQ ID NO: 476) [3] [ppm] | Maximum Peracetic Acid (PAA) (ppm), Wild Type (SEQ ID NO: 16) [4] [ppm] | also measured
1 | CO[C@@H]1OC[C@@H](OC(C)=O)[C@H](OC(C)=O)[C@H]1OC(C)=O [β-methyl xyloside triacetin] | 3856 | 3635 | – | – | –
2 | COCC(C)OC(C)=O (stereo not drawn) [Propylene glycol methyl ether acetate] | 173 | 197 | 181 | 177 | –
3 | CC(=O)OC[C@H]1OC=C[C@@H](OC(C)=O)[C@@H]1OC(C)=O [Tri-O-acetyl glucal] | 1047 | 1319 | 1034 | 729 | –
4 | CC(=O)N[C@@H]1[C@@H](OC(C)=O)[C@H](OC(C)=O)[C@@H](COC(C)=O)O[C@@H]1Cl [2-acetamido-2-deoxy-3,4,6 triacetyl-1-chloride-α-D-glucopyranose] | 863 | 899 | 876 | 548 | –
5 | CC(=O)OCCCCCOC(C)=O [1,5-pentanediol diacetate] | 335 | 484 | 364 | 435 | –
6 | CC(=O)OCCOC(C)=O [Ethylene glycol diacetate] | 1007 | 1059 | 1020 | 794 | –
7 | CC(=O)OC[C@H]1O[C@@H](OC(C)=O)[C@H](OC(C)=O)[C@@H](OC(C)=O)[C@@H]1OC(C)=O [β-D-glucose pentaacetate] | 2178 | 2531 | 1716 | 1158 | –
8 | CC(=O)OC[C@H]1O[C@@H](OC(C)=O)[C@H](OC(C)=O)[C@H]1OC(C)=O [β-D-xylofuranose tetraacetate] | 3354 | 3481 | 3158 | 2384 | –
9 | CC(=O)OCCOCCOC(C)=O [Diethylene glycol diacetate] | 469 | 653 | 530 | 424 | –
10 | CC(=O)OC1OC[C@@H](OC(C)=O)[C@@H](OC(C)=O)[C@H]1OC(C)=O (stereo partly drawn) [1,2,3,4-tetra-O-acetyl-ribopyranose] | 3525 | 3361 | 3503 | 2278 | –
11 | CC(=O)OCC(O)COC(C)=O [Diacetin] | 1013 | 1132 | 1087 | 1160 | –
12 | CC(=O)Oc1ccc(C(=O)O)cc1 [4-acetoxybenzoic acid] | 604 | 426 | 485 | 398 | –
13 | CC(=O)OCc1ccc(C=O)o1 [5-acetoxymethyl-2-furaldehyde] | 1185 | 1125 | 1136 | 778 | –
14 | CC(=O)OC[C@H]1OC(OC(C)=O)[C@H](OC(C)=O)[C@@H]1OC(C)=O (stereo partly drawn) [1,2,3,5-tetra-O-acetyl-ribofuranose] | 3397 | 3472 | 3270 | 2828 | –
15 | CC(=O)OC[C@H](OC(C)=O)[C@@H](OC(C)=O)[C@H](OC(C)=O)[C@@H](COC(C)=O)OC(C)=O [Sorbitol hexaacetate] | 712 | 705 | 616 | 381 | –
16 | CC(=O)OC[C@H]1O[C@H](OC(C)=O)[C@@H](OC(C)=O)[C@@H](OC(C)=O)[C@@H]1OC(C)=O [α-D-mannopyranose pentaacetate] | 4017 | 4212 | 3752 | 4023 | –
17 | CC(=O)OC[C@H]1O[C@@H](OC(C)=O)[C@H](OC(C)=O)[C@@H](OC(C)=O)[C@H]1OC(C)=O [β-D-galactose pentaacetate] | 2539 | 2546 | 1947 | 764 | –
18 | CC(=O)OC[C@H]1O[C@@H](S)[C@H](OC(C)=O)[C@@H](OC(C)=O)[C@@H]1OC(C)=O [1-thio-β-D glucose-2,3,4,6-tetraacetate] | 0 | 171 | 147 | 156 | –
19 | CC(=O)OC[C@H]1OC(OC(C)=O)[C@@H](O)[C@@H](OC(C)=O)[C@@H]1OC(C)=O (stereo partly drawn) [1,3,4,6-tetra-O-acetyl-mannopyranose] | 3593 | 3436 | – | 2361 | –
20 | B1 | – | – | – | – | Unbound (relative band strength) ([5]; 10 μM enzyme, 0.5% hydroxyapatite, pH 7.2): 0.5; HAP Particles (relative band strength) ([5]; enzyme retained on particles after washes): 0.4; Wash1 (relative band strength) [5]: 0.05; Wash2 (relative band strength) [5]: 0.05; Whiteness Index 0 min ([6]; two-step: 10 μM enzyme 60 min, rinsed, then 40 mM triacetin, 100 mM H2O2, pH 7.2, before step 2): −158.9; ΔWI ([6]; two-step, 0 to 60 min): 69.4; Whiteness Index 5 min ([6]; two-step, 5 min in triacetin/H2O2): −143.6; Whiteness Index 15 min ([6]; two-step, 15 min in triacetin/H2O2): −149.5; Whiteness Index 30 min ([6]; two-step, 30 min in triacetin/H2O2): −129.4; Whiteness Index 45 min ([6]; two-step, 45 min in triacetin/H2O2): −106.5; Whiteness Index 60 min ([6]; two-step, 60 min in triacetin/H2O2): −89.5
